Test results published in patent US9975903B2, “Condensed heterocyclic compound” (Takeda Pharmaceutical Company Limited, priority 2014, dated 2018).
Where a name gives a salt, the structure may show the parent alone.

Target: T1, Human recombinant enteropeptidase (Homo sapiens, UniProt P98073)
T1 construct: purchased ITSI-Biosciences LLC #REN-260
Test: Human enteropeptidase inhibitory activity (Test Example 1)
Format: biochemical
Conditions: 3.3 μM test compound; inhibition rate from fluorescence intensity at 2 hours after the start of the reaction; read-out: 3.3 μM Inhibition
Procedure, shortened: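 Recombinant human enteropeptidase in 50 mM Tricine pH 8.0, 0.01% Tween 20, 10 mM CaCl2, with a 5FAM/CPQ2-quenched peptide substrate (2.1 μM solution before mixing). Compound came from 1 mM DMSO stock diluted 100-fold in buffer. Fluorescence (ex 485/em 535 nm) at 2 h gave % inhibition versus no-compound and no-enzyme controls.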

T1 sequence (P98073 whole entry): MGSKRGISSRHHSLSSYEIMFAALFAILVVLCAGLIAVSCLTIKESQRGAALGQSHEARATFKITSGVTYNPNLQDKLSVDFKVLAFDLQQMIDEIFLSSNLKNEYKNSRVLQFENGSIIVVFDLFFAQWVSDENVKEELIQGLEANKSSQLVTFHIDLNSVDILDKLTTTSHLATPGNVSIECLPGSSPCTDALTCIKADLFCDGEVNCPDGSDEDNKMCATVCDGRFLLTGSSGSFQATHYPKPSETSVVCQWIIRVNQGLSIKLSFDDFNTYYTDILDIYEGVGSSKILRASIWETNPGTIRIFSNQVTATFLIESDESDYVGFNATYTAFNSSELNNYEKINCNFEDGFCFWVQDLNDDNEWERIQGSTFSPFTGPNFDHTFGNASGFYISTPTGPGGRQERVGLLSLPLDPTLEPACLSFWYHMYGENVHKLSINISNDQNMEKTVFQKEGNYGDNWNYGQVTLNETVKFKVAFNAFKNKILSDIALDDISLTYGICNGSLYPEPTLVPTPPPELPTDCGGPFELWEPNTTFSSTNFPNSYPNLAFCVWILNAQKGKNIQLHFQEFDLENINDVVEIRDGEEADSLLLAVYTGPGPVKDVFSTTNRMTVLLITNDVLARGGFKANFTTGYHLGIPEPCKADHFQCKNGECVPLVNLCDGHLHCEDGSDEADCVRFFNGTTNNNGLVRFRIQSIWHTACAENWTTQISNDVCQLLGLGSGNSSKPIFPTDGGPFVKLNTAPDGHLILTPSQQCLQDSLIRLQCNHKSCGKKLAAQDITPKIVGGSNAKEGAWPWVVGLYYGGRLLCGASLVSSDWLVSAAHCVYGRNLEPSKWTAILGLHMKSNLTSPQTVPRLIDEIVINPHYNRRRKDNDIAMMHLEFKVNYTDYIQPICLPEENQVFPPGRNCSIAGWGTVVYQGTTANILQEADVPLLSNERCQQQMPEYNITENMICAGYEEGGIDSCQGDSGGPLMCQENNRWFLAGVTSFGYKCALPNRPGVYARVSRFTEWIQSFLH

**Q.** Which inhibition at 3.3 µM does the source give for `N=C(N)Nc1ccc2c(c1)CCCOc1c(CCC(=O)O)cccc1OC2=O` [Example 91, 3-(10-Carbamimidamido-13-oxo-6,7,8,13-tetrahydrodibenzo[b,f][1,4]dioxecin-4-yl)propanoic acid trifluoroacetate] here?
**A.** The inhibition at 3.3 µM was 102%.

**Q.** With `N=C(N)Nc1ccc2c(c1)CCCOc1c(cccc1C(=O)N(CC(=O)O)[C@@H](Cc1ccc(O)cc1)C(=O)O)OC2=O` [Example 92, N-((10-carbamimidamido-13-oxo-6,7,8,13-tetrahydro-dibenzo[b,f] [1,4]dioxecin-4-yl)carbonyl)-N-(carboxymethyl)-L-tyrosine] as the compound, how does the inhibition at 3.3 µM read?
**A.** The inhibition at 3.3 µM was 101%.

**Q.** How did the inhibition at 3.3 µM turn out when `N=C(N)Nc1ccc2c(c1)CCCOc1c(CCC(=O)N[C@@H](CCC(=O)O)C(=O)O)cccc1OC2=O` [Example 93, N-(3-(10-carbamimidamido-13-oxo-6,7,8,13-tetrahydro-dibenzo[b,f] [1,4]dioxecin-4-yl)propanoyl)-L-glutamic acid] was run?
**A.** Its inhibition at 3.3 µM is 100%.

**Q.** For `N=C(N)Nc1ccc2c(c1)CCCOc1c(CCC(=O)N[C@@H](Cc3ccc(O)cc3)C(=O)O)cccc1OC2=O` [Example 95, N-(3-(10-carbamimidamido-13-oxo-6,7,8,13-tetrahydro-dibenzo[b,f] [1,4]dioxecin-4-yl)propanoyl)-L-tyrosine], which inhibition at 3.3 µM is on record?
**A.** The inhibition at 3.3 µM was 101%.

**Q.** Which inhibition at 3.3 µM does the source give for `N=C(N)Nc1ccc2c(c1)CCCOc1c(CCC(=O)NC(CC(=O)O)CC(=O)O)cccc1OC2=O` [Example 96, 3-((3-(10-carbamimidamido-13-oxo-6,7,8,13-tetrahydro-dibenzo[b,f] [1,4]dioxecin-4-yl)propanoyl)amino) pentanedioic acid] here?
**A.** The inhibition at 3.3 µM was 101%.

**Q.** With `N=C(N)Nc1ccc2c(c1)CCCOc1c(CCC(=O)N[C@@H](CC(N)=O)C(=O)O)cccc1OC2=O` [Example 97, N^~2^~-(3-(10-carbamimidamido-13-oxo-6,7,8,13-tetrahydro-dibenzo[b,f] [1,4]dioxecin-4-yl)propanoyl)-L-asparagine] as the compound, how does the inhibition at 3.3 µM read?
**A.** The inhibition at 3.3 µM was 100%.

**Q.** How did the inhibition at 3.3 µM turn out when `N=C(N)c1ccc2c(c1)CCCCc1c(C(=O)N[C@@H](CC(=O)O)C(=O)O)cccc1C(=O)O2` [Example 98, N-((10-carbamimidoyl-14-oxo-5,7,8,14-tetrahydro-6H-dibenzo[b,h]oxecin-4-yl)carbonyl)-L-aspartic acid] was run?
**A.** The inhibition at 3.3 µM was 95%.

**Q.** For `N=C(N)Nc1ccc2c(c1)CCCOc1c(cccc1C(=O)N1CCC[C@H]1C(=O)N[C@@H](CC(=O)O)C(=O)O)OC2=O` [Example 99, 1-((10-Carbamimidamido-13-oxo-6,7,8,13-tetrahydrodibenzo[b,f][1,4]dioxecin-4-yl)carbonyl)-L-prolyl-L-aspartic acid], which inhibition at 3.3 µM is on record?
**A.** Its inhibition at 3.3 µM is 100%.

**Q.** How did the inhibition at 3.3 µM turn out when `N=C(N)Nc1ccc2c(c1)CCCOc1c(cccc1C(=O)NCC(=O)N[C@@H](CC(=O)O)C(=O)O)OC2=O` [Example 100, N-((10-carbamimidamido-13-oxo-6,7,8,13-tetrahydro-dibenzo[b,f] [1,4]dioxecin-4-yl)carbonyl)glycyl-L-aspartic acid] was run?
**A.** The inhibition at 3.3 µM was 101%.

**Q.** For `N=C(N)Nc1ccc2c(c1)CCCOc1c(cccc1C(=O)N1CCC(C(=O)N[C@@H](CC(=O)O)C(=O)O)CC1)OC2=O` [Example 101, N-((1-((10-carbamimidamido-13-oxo-6,7,8,13-tetrahydro-dibenzo[b,f] [1,4]dioxecin-4-yl)carbonyl)-piperidin-4-yl)carbonyl)-L-aspartic acid], which inhibition at 3.3 µM is on record?
**A.** Its inhibition at 3.3 µM is 100%.

**Q.** Which inhibition at 3.3 µM does the source give for `CN(C(=O)CCc1cccc2c1OCCCc1cc(NC(=N)N)ccc1C(=O)O2)[C@@H](CC(=O)O)C(=O)O` [Example 102, N-(3-(10-carbamimidamido-13-oxo-6,7,8,13-tetrahydro-dibenzo[b,f] [1,4]dioxecin-4-yl)propanoyl)-N-methyl-L-aspartic acid] here?
**A.** The inhibition at 3.3 µM was 101%.

**Q.** How did the inhibition at 3.3 µM turn out when `CN(CC(=O)N[C@@H](CC(=O)O)C(=O)O)C(=O)c1cccc2c1OCCCc1cc(NC(=N)N)ccc1C(=O)O2` [Example 103, N-((10-carbamimidamido-13-oxo-6,7,8,13-tetrahydro-dibenzo[b,f] [1,4]dioxecin-4-yl)carbonyl)-N-methylglycyl-L-aspartic acid] was run?
**A.** The inhibition at 3.3 µM was 101%.
